Active and inactive are the calls of the source. The calls are words filed in the database; no cut-off is given here.
Tests used:
[1] = biological target: T1, Acetylcholinesterase (Homo sapiens, UniProt P22303); assay: Inhibition of human recombinant AChE using acetylthiocholine iodide as substrate up to 50 uM preincubated with enzyme for 20 mins prior to substrate addition by Ellman's method
[2] = biological target: Beta-secretase 1 (Homo sapiens, UniProt P56817); assay: Inhibition of human recombinant BACE1 using M-2420 as substrate preincubated with enzyme for 1 hr by FRET assay
Chain of Beta-secretase 1 (P56817 whole entry): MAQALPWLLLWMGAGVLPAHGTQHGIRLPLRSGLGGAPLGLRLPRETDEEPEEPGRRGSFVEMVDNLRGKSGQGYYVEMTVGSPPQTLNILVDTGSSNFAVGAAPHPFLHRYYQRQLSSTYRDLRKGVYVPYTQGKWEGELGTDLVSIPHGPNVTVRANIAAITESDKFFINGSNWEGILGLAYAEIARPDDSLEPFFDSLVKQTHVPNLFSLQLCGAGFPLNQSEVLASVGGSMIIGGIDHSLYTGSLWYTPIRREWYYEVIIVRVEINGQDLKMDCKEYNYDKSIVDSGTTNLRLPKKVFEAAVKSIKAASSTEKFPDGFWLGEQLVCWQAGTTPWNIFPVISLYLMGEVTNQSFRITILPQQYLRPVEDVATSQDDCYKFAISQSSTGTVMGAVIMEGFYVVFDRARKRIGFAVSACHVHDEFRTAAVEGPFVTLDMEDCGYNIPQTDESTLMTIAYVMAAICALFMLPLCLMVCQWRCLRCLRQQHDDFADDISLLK

[3] = biological target: T1, Acetylcholinesterase
Description: Inhibition of human recombinant AChE using acetylthiocholine iodide as substrate preincubated with enzyme for 20 mins prior to substrate addition by Ellman's method

[4] = (§1) Neurotoxicity against human SH-SY5Y cells assessed as inhibition of cell viability after 24 hrs by MTT assay; assay type: toxicity, cell-based; conditions: SH-SY5Y cells
[5] = tested on: SH-SY5Y; assay: as §1; assay type: toxicity, cell-based; conditions: sh-sy5y, 24 h

T1 sequence (P22303 whole entry): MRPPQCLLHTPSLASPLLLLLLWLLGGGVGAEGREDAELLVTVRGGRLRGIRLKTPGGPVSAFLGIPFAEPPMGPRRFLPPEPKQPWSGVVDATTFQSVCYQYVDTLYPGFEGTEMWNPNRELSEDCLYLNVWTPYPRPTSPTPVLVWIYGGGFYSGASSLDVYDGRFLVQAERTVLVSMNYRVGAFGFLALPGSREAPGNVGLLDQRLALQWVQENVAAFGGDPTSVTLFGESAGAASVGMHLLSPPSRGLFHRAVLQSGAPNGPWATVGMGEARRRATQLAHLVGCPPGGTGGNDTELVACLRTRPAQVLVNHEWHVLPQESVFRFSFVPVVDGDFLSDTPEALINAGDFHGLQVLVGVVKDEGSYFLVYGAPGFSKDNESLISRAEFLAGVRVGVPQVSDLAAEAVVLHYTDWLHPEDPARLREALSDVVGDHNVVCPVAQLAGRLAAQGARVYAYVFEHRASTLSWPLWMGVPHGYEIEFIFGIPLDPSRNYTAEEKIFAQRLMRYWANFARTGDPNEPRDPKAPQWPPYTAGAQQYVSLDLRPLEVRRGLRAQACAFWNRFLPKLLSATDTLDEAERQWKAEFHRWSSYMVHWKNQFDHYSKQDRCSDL

**Q.** For `CN(Cc1ccccc1)Cc1ccc(/C=C2\Cc3ccc(OCCCCCN4CCN(Cc5ccc(F)cc5)CC4)cc3C2=O)cc1`, which inhibition [1] is on record?
**A.** inactive

**Q.** With `CCOC(=O)C1(c2ccccc2)CCN(CCCCCOc2ccc3c(c2)C(=O)/C(=C/c2ccc(CN(C)Cc4ccccc4)cc2)C3)CC1` as the compound, how does the inhibition [1] read?
**A.** inactive

**Q.** What about the IC50 [2] of the same compound?
**A.** 8.23 µM

**Q.** What does the source list for `CN(Cc1ccccc1)Cc1ccc(/C=C2\Cc3ccc(OCCCCCN4CCC(c5ccccc5)CC4)cc3C2=O)cc1`?
**A.** IC50 [3]: 62 µM; IC50 [2]: 13.4 µM

**Q.** With `CN(Cc1ccccc1)Cc1ccc(/C=C2\CCc3cc(OCCCCCN4CCN(C(c5ccc(F)cc5)c5ccc(F)cc5)CC4)ccc3C2=O)cc1` as the compound, how does the inhibition [1] read?
**A.** inactive

**Q.** With `CN(Cc1ccccc1)Cc1ccc(/C=C2\Cc3ccc(OCCCCCN4CCN(c5ccccc5)CC4)cc3C2=O)cc1` as the compound, how does the inhibition [1] read?
**A.** inactive

**Q.** And the IC50 [2]?
**A.** 11.7 µM

**Q.** Which inhibition [1] does the source give for `CN(Cc1ccccc1)Cc1ccc(/C=C2\Cc3ccc(OCCCCCN4CCC(=C(c5ccc(F)cc5)c5ccc(F)cc5)CC4)cc3C2=O)cc1` here?
**A.** inactive

**Q.** What about the IC50 [2] of the same compound?
**A.** 5.95 µM

**Q.** With `CN(Cc1ccccc1)Cc1ccc(/C=C2\Cc3ccc(OCCCCCN4CCCCC4)cc3C2=O)cc1` as the compound, how does the IC50 at 24 h [4] read?
**A.** 23.3 µM

**Q.** With `CN(Cc1ccccc1)Cc1ccc(/C=C2\Cc3ccc(OCCCCCN4CCN(OC(=O)C(C)(C)C)CC4)cc3C2=O)cc1` as the compound, how does the inhibition [1] read?
**A.** inactive

**Q.** What about the Activity [5] of the same compound?
**A.** Non-toxic

**Q.** What about the IC50 [2] of the same compound?
**A.** 3.21 µM

**Q.** With `CN(Cc1ccccc1)Cc1ccc(/C=C2\CCc3cc(OCCCCCN4CCN(Cc5ccc(F)cc5)CC4)ccc3C2=O)cc1` as the compound, how does the IC50 [3] read?
**A.** 7.83 µM

**Q.** For `CN(Cc1ccccc1)Cc1ccc(/C=C2\Cc3ccc(OCCCCCN4CCN(C(c5ccc(F)cc5)c5ccc(F)cc5)CC4)cc3C2=O)cc1`, which inhibition [1] is on record?
**A.** inactive

**Q.** And the Activity [5]?
**A.** Non-toxic

**Q.** And the IC50 [2]?
**A.** 2.49 µM

**Q.** For `CN(Cc1ccccc1)Cc1ccc(/C=C2\Cc3ccc(OCCCCCN4CCC(n5c(=O)[nH]c6ccccc65)CC4)cc3C2=O)cc1`, which inhibition [1] is on record?
**A.** inactive

From ChEMBL document CHEMBL3596160, “From AChE to BACE1 inhibitors: The role of the amine on the indanone scaffold” (Bioorg Med Chem Lett, 2015)
